The values below come from publication PMC9403987 (Frontiers in Oncology, 2022).

One data set deals with BN2289. Kind of data set: Subcutaneous BN2289 glioblastoma xenograft. Particulars: 25 mg/kg daily oral, 28 days, measured day 21. It counts as in vivo, BALB/c nude mice. On the procedure:
(§1) The efficacy of GLR2007 was evaluated in human GBM and breast cancer orthotopic cell-line-derived xenografts in NOD/SCID mice (Shanghai Lingchang Biotechnology Co. Ltd, Shanghai, China) and BALB/c nude mice (Shanghai Sino-British SIPPR/BK Laboratory Animal Co. Ltd, Shanghai, China), and human lung, colorectal, and liver cancer subcutaneous cell-line-derived xenografts in BALB/c nude mice (Nanjing University National Resource Center, Nanjing, China, or Beijing Anikeeper Biotech Co., Beijing, China). Mice were maintained in humidity- and temperature-controlled conditions with food and water available ad libitum. For subcutaneous models, female BALB/c nude mice were inoculated at 4–8 weeks old with 3×10^6–1×10^7 tumor cells (see Table 1 for xenograft model cell types) in the right flank for tumor development. Randomization was performed when the mean tumor volume reached 118–171 mm^3.

For another data set, the system named is MCF-7 tumor cells. Kind of data set: Orthotopic MCF-7 breast cancer xenograft. Particulars: 25 mg/kg daily oral. It counts as in vivo, NOD/SCID mice. The method, then: as §1, with “libitum.” for “libitum. For subcutaneous models, female BALB/c nude mice were inoculated at 4–8 weeks old with 3×10^6–1×10^7 tumor cells (see Table 1 for xenograft model cell types) in the right flank for tumor development. Randomization was performed when the mean tumor volume reached 118–171 mm^3.”
In two breast cancer orthotopic xenograft models, female NOD/SCID mice were subcutaneously implanted with an estrogen pellet (17β-estradiol; Innovative Research of America, Sarasota, FL, USA) one day before tumor inoculation. Mice were inoculated at 6–7 weeks old with 2×10^7 MCF-7 tumor cells plus Matrigel in a 1:1 ratio in PBS at a mammary fat pad or in the right flank. Randomization was performed when the mean tumor volume reached 135–138 mm^3.

For another data set, the system named is NCI-H1975. Kind of data set: Subcutaneous NCI-H1975 non-small cell lung cancer xenograft. It counts as in vivo, BALB/c nude mice. Particulars: 25 mg/kg daily oral, 22 days, measured day 16. On the procedure: as §1
The next data set deals with COLO 205. Nature of the data set: Subcutaneous COLO 205 colorectal cancer xenograft. It counts as in vivo, BALB/c nude mice. Particulars: 25 mg/kg daily oral, 26 days, measured day 25. On the procedure:
as §1

For another data set, the system named is LI1088. Nature of the data set: Subcutaneous LI1088 liver cancer xenograft. It counts as in vivo, BALB/c nude mice. The conditions noted are these: 25 mg/kg daily oral, 28 days, measured day 25. The method, then:
as §1

On the set-up of data set [1]: method as in PMID 26149830, PMID 20354191. The conditions noted are these: within 5 minutes after intravenous administration of 1 mg/kg; cited from earlier work.
For data set [2] the following is noted: mouse, in vivo, po, 100 mg/kg; cited from earlier work.

With `CC(=O)c1c(C)c2cnc(Nc3ccc(N4CCNCC4)cn3)nc2n(C2CCCC2)c1=O` [Palbociclib, palbociclib, reference compound], the “TGI (%)” value was determined as 34.0% in the data set on BN2289; 45.5% in the data set with MCF-7 tumor cells (21 days, measured day 21, 8 mice); 77.7% in the data set on MCF-7 tumor cells (28 days, measured day 25, 10 mice); 33.6% with NCI-H1975; 52.9% with COLO 205; 16.4% in the data set with LI1088. Also, the “unbound brain-to-plasma partition coefficient (Kp,uu)” value in data set [1] is given as 0.01.
Consider `CN(C)C(=O)c1cc2cnc(Nc3ccc(N4CCNCC4)cn3)nc2n1C1CCCC1` [ribociclib], for which the “Kp,uu” value in data set [2] is reported as 0.105.
